The source of these data is US20150313837A1, “POLYMERIC HYDROGEL COMPOSITIONS WHICH RELEASE ACTIVE AGENTS IN RESPONSE TO ELECTRICAL STIMULUS” (University of Witwatersrand, Johannesburg, priority 2010, published 2015).

The nature of the data set: Drug leakage from hydrogel in PBS in absence of electric current. The data set is classed as physicochemical. The settings on record: comparison of drugs loaded in the hydrogel. Here is the method: The indomethacin-loaded hydrogels were left in […] PBS for 12 hours, and a 1 mL sample was then taken in order to assess for any drug release prior to exposure to an electric current. […] Further tests for drug release of the indomethacin-loaded hydrogels in the presence of an electric current were performed.
The system was therefore left in 50 mL of PBS for 12 hours, and 1 mL sample was taken and assessed for any presence of drugs. […] The hydrogels were then then assessed for their drug release capacity. They were once again immersed in PBS and an electric current was passed through them. This time, 35 samples were extracted and assessed by UV/visible spectroscopy for the amount of drugs which were released.
The amount of drug released ranged from 0.081 mg to 0.160 mg. The hydrogel was then assessed one last time for any leakage of drugs. The hydrogel was immersed in 50 mL of PBS for 12 hours.
One possible explanation for this phenomenon is the larger molecular size of indomethacin as compared to diclofenac sodium and ibuprofen. This larger molecular size means that indomethacin is better entrapped inside the three dimensional network of the hydrogel system.
As for `COc1ccc2c(c1)c(CC(=O)O)c(C)n2C(=O)c1ccc(Cl)cc1` [indomethacin], the “leakage of loaded drug from hydrogel when no electric current is applied” value is “no leakage occurred”.
The value for `CC(C)Cc1ccc(C(C)C(=O)O)cc1` (stereo not drawn) [ibuprofen] was “drug leakage may still have occurred on the surface”.
The value for `O=C(O)Cc1ccccc1Nc1c(Cl)cccc1Cl` [Diclofenac sodium] was “drug leakage may still have occurred on the surface”.
